In patent publication US20070191490A1, “Withacnistin compounds for treatment of cancer” (priority 2006, published 2007):

Assays:
[1] = tested on: phospho-Akt; experiment: phospho-Akt levels in A549 cells (Western blotting); type: cell-based, human; settings: 10 μM, 4 hours
Protocol: Western blotting. Treated cell samples were lysed in 30 mM HEPES, pH 7.5, 10 mM NaCl, 5 mM MgCl2, 25 mM NaF, 1 mM EGTA, 1% Triton X-100, 10% glycerol, 2 mM sodium orthovanadate, 10 μg/ml aprotinin, 10μ/ml soybean trypsin inhibitor, 25 μg/ml leupeptin, 2 mM PMSF, and 6.4 mg/ml p-nitrophenylphosphate. Phospho-STAT3, phospho-AKT, phospho-Src, and phospho-p42/p44 MAPK antibodies were obtained from Cell Signaling Technologies (Cambridge, Mass., USA). Phospho-JNK and whole STAT3 antibodies were purchased from Santa Cruz Biotechnology (Santa Cruz, Calif., USA); phospho-JAK2 antibody came from Upstate Biotechnology (Lake Placid, N.Y., USA). Membranes were blocked in either 5% milk in phosphate-buffered saline (PBS), pH 7.4, containing 0.1% Tween-20 (PBS-T) or 1% BSA in tris-buffered saline (TBS), pH 7.5, containing 0.1% Tween-20 (TBS-T). Phospho-specific antibodies (excepting P-MAPK and P-JNK) were incubated in 1% BSA in TBS-T while all other antibodies were diluted in 5% milk in PBS-T for either 2 h at room temperature or overnight at 4° C. HRP-conjugated secondary antibodies (Jackson ImmunoResearch, West Grove, Pa., USA) were diluted in 5% milk in either PBS-T or TBS-T at 1:1000 dilution for 1 h at room temperature. […]
It was next determined whether withacnistin and the Cuc analogs are selective for the JAK2/STAT3 pathway over other signal transduction pathways. […]

[2] = biological target: Src kinase (Homo sapiens, UniProt P12931); settings: Blaskovich et al. 2003; cited from earlier work
[3] = tested on: MDA-MB-453 cells; experiment: TUNEL apoptosis assay, MDA-MB-453; type: cell-based, human; settings: 10 μM withacnistin mixture, 24 hours
Protocol: (§1) In vitro cellular proliferation and TUNEL assays. Subconfluent A549, MDA-MB-435, MDA-MB-453, MDAMB-468, v-Src transformed NIH 3T3 (v-Src/3T3), H-Ras transformed NIH 3T3 (H-Ras/3T3), and vector NIH 3T3 cells were grown in the presence of 10 μM cucurbitacin A, cucurbitacin I, withacnistin mixture, or DMSO vehicle control. After 24 hours, cells were harvested by trypsinization and counted via trypan blue exclusion assay to determine cellular viability. In all, 75,000-150,000 cells (depending on cell line) were then spun onto glass slides using a Cytospin 3 centrifuge (Thermo Shandon Inc., Pittsburgh, Pa., USA). After fixing cells to the slides with 4% paraformaldehyde in PBS, pH 7.5, for 1 h at room temperature, cells were labeled for apoptotic DNA strand breaks by TUNEL reaction using an in situ cell death detection kit (Roche Applied Science, Indianapolis, Ind., USA) according to the manufacturer's instructions, then mounted in Vectashield mounting medium (Vector Laboratories, Burlingame, Calif., USA) containing 4′,6-diamidino-2-phenylindole (DAPI) to counterstain DNA. […] TUNELpositive nuclei were counted and compared to DAPI-stained nuclei to determine the percent induction of apoptosis by the different cucurbitacin compounds. Statistical significance between control and treated tumors were evaluated by using Student's t-test. […]

[4] = tested on: H-Ras/3T3 cells; experiment: TUNEL apoptosis assay, H-Ras/3T3; type: cell-based, murine; settings: 10 μM withacnistin mixture, 24 hours
Protocol: as §1

[5] = biological target: T1, STAT3 (Homo sapiens, UniProt P40763); experiment: Growth factor/cytokine stimulation of STAT3 tyrosine phosphorylation; type: cell-based
T1 construct: endogenous in cells; host or cells: U266; MDA-MB-468
Protocol: (§2) Furthermore, it is not know whether Wit suppresses constitutive or stimulated P-STAT3 levels selectively over other STAT family members such as STAT1 and STAT5. To this end, a variety of human cancer cell lines were treated with Wit and stimulated with growth factors or cytokines known to activate STAT family members as described under Methods. […] Pretreatment of U266 cells with W or WM blocked this IL-6 activation of STAT3 in a dose-dependent manner. In contrast, IL-6 activation of STAT1 in these cells was not affected by Wit pretreatment (FIG. 9B).

[6] = tested on: STAT1; experiment: Growth factor/cytokine stimulation of STAT1 tyrosine phosphorylation; type: cell-based, human; settings: U266 cells, pretreatment
Protocol: as §2

[7] = tested on: phosphotyrosine-STAT3; experiment: Inhibition of phosphotyrosine-STAT3 levels in tumor cell lines (Western blotting); type: cell-based, human; settings: A549 cells, by 24 hours; data not shown

T1 sequence (P40763 2-770 limits assumed): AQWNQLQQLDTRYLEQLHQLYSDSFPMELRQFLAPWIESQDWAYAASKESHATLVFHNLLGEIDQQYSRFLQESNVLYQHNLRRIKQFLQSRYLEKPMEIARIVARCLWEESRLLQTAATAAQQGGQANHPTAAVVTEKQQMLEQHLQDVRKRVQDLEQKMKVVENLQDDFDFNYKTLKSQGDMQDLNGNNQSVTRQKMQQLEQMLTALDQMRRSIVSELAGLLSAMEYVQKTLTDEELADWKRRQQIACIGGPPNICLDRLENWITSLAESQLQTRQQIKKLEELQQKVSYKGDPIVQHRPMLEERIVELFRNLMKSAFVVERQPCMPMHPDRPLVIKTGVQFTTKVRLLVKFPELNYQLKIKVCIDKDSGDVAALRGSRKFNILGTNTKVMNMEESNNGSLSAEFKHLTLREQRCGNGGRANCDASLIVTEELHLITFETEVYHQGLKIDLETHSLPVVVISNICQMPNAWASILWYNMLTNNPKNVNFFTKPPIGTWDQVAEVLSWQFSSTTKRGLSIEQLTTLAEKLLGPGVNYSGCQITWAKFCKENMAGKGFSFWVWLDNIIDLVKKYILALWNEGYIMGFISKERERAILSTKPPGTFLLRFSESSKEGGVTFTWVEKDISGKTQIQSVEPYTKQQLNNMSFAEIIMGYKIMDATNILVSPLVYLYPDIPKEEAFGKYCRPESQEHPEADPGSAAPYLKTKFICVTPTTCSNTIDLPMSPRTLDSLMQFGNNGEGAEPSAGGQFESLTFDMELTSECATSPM
Chain of Src kinase (P12931 whole entry): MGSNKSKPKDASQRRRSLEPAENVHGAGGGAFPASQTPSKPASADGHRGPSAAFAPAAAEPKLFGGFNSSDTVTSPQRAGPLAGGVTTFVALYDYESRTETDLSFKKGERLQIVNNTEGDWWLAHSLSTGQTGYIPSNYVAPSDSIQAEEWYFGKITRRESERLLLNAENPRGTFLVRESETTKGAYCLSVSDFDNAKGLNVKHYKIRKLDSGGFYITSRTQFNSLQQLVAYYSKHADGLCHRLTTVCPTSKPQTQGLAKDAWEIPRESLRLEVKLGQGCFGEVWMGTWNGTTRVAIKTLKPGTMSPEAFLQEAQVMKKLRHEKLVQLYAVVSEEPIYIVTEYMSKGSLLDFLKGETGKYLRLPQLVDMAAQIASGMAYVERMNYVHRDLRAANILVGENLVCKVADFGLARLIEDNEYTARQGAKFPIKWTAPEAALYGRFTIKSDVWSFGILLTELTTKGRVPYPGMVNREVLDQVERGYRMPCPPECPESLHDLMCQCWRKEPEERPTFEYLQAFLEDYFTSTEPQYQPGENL

## CC(=O)OC(C)(C)/C=C/C(=O)[C@](C)(O)[C@H]1[C@H](O)C[C@@]2(C)[C@@H]3CC=C4[C@@H](C[C@H](O)C(=O)C4(C)C)[C@]3(CO)C(=O)C[C@]12C [Cuc A, cucurbitacin A]
[1]
  phosphotyrosine levels of Akt: little inhibitory activity

## CC(C)(O)/C=C/C(=O)[C@](C)(O)[C@H]1[C@H](O)C[C@@]2(C)[C@@H]3CC=C4[C@@H](C=C(O)C(=O)C4(C)C)[C@]3(C)C(=O)C[C@]12C [Cuc I, cucurbitacin I]
[2]
  inhibition of Src kinase in vitro: not inhibited

## CC(=O)OC[C@]12CC[C@H]3[C@@H](C[C@H]4O[C@]45[C@@H](O)C=CC(=O)[C@]35C)[C@@H]1CC[C@@H]2[C@H](C)[C@H]1CC(C)=C(C)C(=O)O1 [withacnistin]
[3]
  increase of percentage of apoptotic cells compared to vehicle control: 4.7 fold
[4]
  apoptosis (TUNEL-positive cells): 7.3±4.7%
  fold increase of apoptosis over control: 12.5 fold
[5]; MDA-MB-468 cells
  EGF activation of STAT3: inhibited
[5]; U266 cells, pretreatment, dose-dependent
  IL-6 activation of STAT3 (tyrosine phosphorylation): blocked
[5]; pretreatment (FIG. 9D)
  PDGF-stimulated tyrosine phosphorylation of STAT3: inhibited
[6]
  IL-6 activation of STAT1: not affected
[7]
  P-STAT3 levels: suppressed
